The results in this text go back to publication PMC8037310, “Thrombin-Derived Peptides Potentiate the Activity of Gram-Positive-Specific Antibiotics against Gram-Negative Bacteria” (Molecules, 2021).

Values joined by “and” are separate entries in the source; they are usually repeats but may differ in a detail not shown here. Equal values may be shown once. Read-outs that look alike come from different tables or passages of the source. Square brackets hold non-standard residues; d marks the D form. Peptide text beside a SMILES is read from it. Some results are limits rather than exact numbers.

In series [1] the test system is E. coli BW25113. The class given is cell-based, Escherichia coli. As to conditions: for MICpep: synergist alone, E. coli BW25113, from checkerboard with rifampicin; for MSCpep: synergist concentration in the combination with rifampicin giving the lowest FICi; for MSCpep / MSCrif: E. coli BW25113; for FICi: BW25113, 20 h; for MSCrif: rifampicin concentration in the combination giving the lowest FICi. On the procedure: (§1) All peptides were screened for antimicrobial activity against E. coli BW25113, E. coli ATCC25922, and E. coli W3110. A select group of the peptides was further tested against E. coli mcr-1, E. coli EQASmcr-1 (EQAS 2016 412016126), E. coli EQASmcr-2 (EQAS 2016 KP37), E. coli EQASmcr-3 (EQAS 2017 2013-SQ352), K. pneumoniae ATCC13883, P. aeruginosa ATCC27853, and A. baumannii ATCC17978. The antimicrobial assay was performed according to CLSI guidelines. Bacteria were plated out directly from their glycerol stocks on blood agar plates, incubated overnight at 37 °C, and then kept in the fridge. The blood agar plates were only used for 2 weeks and then replaced.
(§2) One colony from a blood agar plates was inoculated in Lysogeny Broth (LB) at 37 °C until a 0.5 optical density at 600 nm (OD600) was reached (compared to the sterility control of LB). The bacterial suspension was diluted in fresh LB to 2.0 × 10^6 CFU/mL. The serial dilutions were prepared in polypropylene microtiter plates: a stock of the test compounds was prepared with a 2x final concentration in LB. Moreover, 100 µL of the stock was added to the wells of the top row of which 50 µL was used for the serial dilution. The bottom row of each plate was used as the positive (50 µL of LB) and negative controls (100 µL of LB) (6 wells each). Furthermore, 50 µL of the 2.0 × 10^6 CFU/mL bacterial stock was added to each well except for the negative controls, adding up to a total volume of 100 µL per well. The plates were sealed with a breathable seal and incubated for 20 h at 37 °C and 600 rpm.
(§3) Two 96-well plates were required per compound. A serial dilution of the compound was performed on two plates from row A–G using with LB as medium. Row H was filled with 25 µL medium. On a separate plate a negative control (8 wells, 100 μL medium) was prepared. For all concentrations of antibiotic a specific stock was prepared. 25 µL medium was added to the 0 µg/mL antibiotic columns (plate I, column 1–3). Of each antibiotic stock 25 µL was added to three columns to obtain triplicates for every condition. Both plates contained 50 µL in each well to which 50 µL bacterial stock was added (see the protocol of the MIC assays) and the plates were sealed. After incubation for 20 h at 37 °C while shaking, the breathable seals were removed and the density of the bacterial suspensions measured at 600 nm (OD600) using a Tecan Spark plate reader. The OD600 values were transformed to a 2D gradient with the negative control as minimum and the positive control (wells G1, G2, and G3) as maximum in excel. The FICi was calculated using Equation (1) with a FICi ≤ 0.5 indicating synergy. FICi = (MSCa/MICa) + (MSCb/MICb),(1)
(§4) Calculation of the FICi: MSCa = concentration of the […] in combination with the antibiotic that results in the lowest FICi. MICa = MIC of the antibiotic without synergist (row G). MSCb = concentration of the synergist in combination with the antibiotic that results in the lowest FICi. MICb = MIC of the synergist itself (Column 1–3, plate I).

The subject of series [2] is E. coli BW25113. Kind of series: Checkerboard assay with erythromycin. Format: cell-based, Escherichia coli. As to conditions: for MSCery: erythromycin concentration in the combination with the synergist giving the lowest FICi, E. coli BW25113; for MIC of the peptide (MICpep): synergist alone, from checkerboard with erythromycin; for MIC of the peptide (MICpep) / MSCpeptide, minimum synergistic concentration: 20 h 37 °C; for MSCpeptide, minimum synergistic concentration: synergist concentration in the combination with erythromycin giving the lowest FICi, OD600; for FICi: with erythromycin vs E. coli BW25113, synergy defined as FICi ≤ 0.5. The procedure: as §1, §2, §3, §4

Series [3] relates to defibrinated sheep blood (red blood cells). Kind of series: Hemolysis assay. The class given is cell-based. As to conditions: 200 µg/mL compound, 20 h incubation at 37 °C with defibrinated sheep blood, PBS 0.002% Tween20, absorbance 415 nm, relative to 0.1% Triton X-100; n=3 technical replicates. On the procedure: Defibrinated sheep blood (Thermo Fisher Scientific) and a phosphate-buffered saline (PBS) buffer containing 0.002% Tween20 were used in this assay. The red blood cells were washed with buffer followed by centrifugation (400 g for 15 min at 4 °C). The red blood cells were then normalized to obtain a positive control read-out around 2.5 at 415 nm to stay in the linear range with the maximum sensitivity. A serial dilution of the compounds (200–1.56 µg/mL, 75 µL) was prepared in a 96-well plate. Each plate contained a positive control (0.1% Triton X-100 final concentration, 75 µL) and the negative control (buffer, 75 µL). After addition of normalized blood cells (75 µL), the plates were incubated for 20 h at 37 °C at 500 rpm. The plates were centrifuged (800× g for 5 min at room temperature). For the next step flat-bottom polystyrene plates were prepared with 100 µL buffer in each well. Aliquots of 25 µL supernatant from the centrifuged plates were then transferred to their respective wells in the flat-bottom plate. Absorbance values where measured at 415 nm and corrected for background (negative control) and transformed to a percentage hemolysis relative to the positive control.

In series [4] the test system is E. coli BW25113. The series is described as follows: microbe, parasite or virus in culture. Format: cell-based, Escherichia coli. As to conditions: antibiotic without synergist, E. coli BW25113. The procedure: as §1, §2, §3, §4

Turning to `CC[C@H](C)[C@H](NC(=O)[C@@H](NC(=O)[C@H](CCCCN)NC(=O)[C@H](CCC(N)=O)NC(=O)[C@@H](NC(=O)[C@H](Cc1c[nH]c2ccccc12)NC(=O)[C@H](CCCCN)NC(=O)[C@H](CCCCN)NC(=O)[C@H](CC(C)C)NC(=O)[C@H](CCCNC(=N)N)NC(=O)[C@H](Cc1ccccc1)NC(=O)[C@@H](NC(C)=O)C(C)C)[C@@H](C)CC)C(C)C)C(N)=O` [peptide 7] (Ac-VFRLKKWIQKVI-NH2), in series [1], the MICpep was found to be 50 µg/mL and the MSCpep was determined as 12.5 µg/mL. Also, in series [2], the MSCery is 3.125 µg/mL. Moreover, in series [2] (E. coli BW25113, LB), the “MIC of the peptide (MICpep)” value is 50 µg/mL and the “MSCpeptide, minimum synergistic concentration” value was 12.5 µg/mL. Also, the Hemolysis in series [3] is 4.6% and 5%.
For the molecule `CC[C@H](C)[C@H](NC(=O)[C@H](Cc1c[nH]c2ccccc12)NC(=O)[C@H](CCCCN)NC(=O)[C@H](CCCCN)NC(=O)[C@H](CC(C)C)NC(=O)[C@H](CCCNC(=N)N)NC(=O)[C@H](Cc1ccccc1)NC(=O)[C@@H](NC(=O)[C@@H](N)Cc1cnc[nH]1)C(C)C)C(=O)N[C@@H](CCC(N)=O)C(=O)N[C@@H](CCCCN)C(=O)N[C@H](C(=O)N[C@H](C(=O)N[C@@H](CC(=O)O)C(=O)N[C@@H](CCC(N)=O)C(=O)N[C@@H](Cc1ccccc1)C(=O)NCC(=O)N[C@@H](CCC(=O)O)C(=O)O)[C@@H](C)CC)C(C)C` [peptide 2] (H-HVFRLKKWIQKVIDQFGE-OH), the Hemolysis in series [3] was 8.7% and 9%.
As for `CC[C@H](C)[C@H](NC(=O)[C@@H](NC(=O)[C@H](CCCCN)NC(=O)[C@H](CCC(N)=O)NC(=O)[C@@H](NC(=O)[C@H](Cc1c[nH]c2ccccc12)NC(=O)[C@H](C)NC(=O)[C@H](CCCCN)NC(=O)[C@H](CC(C)C)NC(=O)[C@H](CCCNC(=N)N)NC(=O)[C@H](Cc1ccccc1)NC(=O)[C@@H](N)C(C)C)[C@@H](C)CC)C(C)C)C(N)=O` [compound 13] (H-VFRLKAWIQKVI-NH2), in series [1], the FICi came to 0.5000, the MSCrif stood at 2 µg/mL, the MICpep worked out at 25 µg/mL and the MSCpep is 6.25 µg/mL. In series [2], the MSCery was determined as 3.125 µg/mL and the FICi is > 0.5. In addition, in series [2] (E. coli BW25113, LB), the “MIC of the peptide (MICpep)” value is recorded as 25 µg/mL and the “MSCpeptide, minimum synergistic concentration” value is given as 12.5 µg/mL. Besides, the Hemolysis in series [3] is on record as 19.0%.
Consider `CC[C@@H](C)[C@@H](NC(=O)[C@H](NC(=O)[C@@H](CCCCN)NC(=O)[C@@H](CCC(N)=O)NC(=O)[C@H](NC(=O)[C@@H](Cc1c[nH]c2ccccc12)NC(=O)[C@@H](CCCCN)NC(=O)[C@@H](CCCCN)NC(=O)[C@@H](CC(C)C)NC(=O)[C@@H](CCCNC(=N)N)NC(=O)[C@@H](Cc1ccccc1)NC(=O)[C@H](N)C(C)C)[C@H](C)CC)C(C)C)C(N)=O` [peptide 20] (H-[dV][dF][dR][dL][dK][dK][dW][dI][dQ][dK][dV][dI]-NH2), for which, in series [1], the FICi is reported as 0.2813, the MSCrif was 0.25 µg/mL, the MICpep amounted to 12.5 µg/mL and the MSCpep worked out at 3.125 µg/mL. Also, the MSCery in series [2] came out at 3.125 µg/mL. Moreover, in series [2] (E. coli BW25113, LB), the “MIC of the peptide (MICpep)” value worked out at 6.25 µg/mL and the “MSCpeptide, minimum synergistic concentration” value is listed as 3.13 µg/mL. In addition, in series [3], the Hemolysis is 3.2% and 3%.
As to `CC[C@H](C)[C@H](NC(=O)[C@H](C)NC(=O)[C@H](CCCCN)NC(=O)[C@H](CCC(N)=O)NC(=O)[C@@H](NC(=O)[C@H](Cc1c[nH]c2ccccc12)NC(=O)[C@H](CCCCN)NC(=O)[C@H](CCCCN)NC(=O)[C@H](CC(C)C)NC(=O)[C@H](CCCNC(=N)N)NC(=O)[C@H](Cc1ccccc1)NC(=O)[C@@H](N)C(C)C)[C@@H](C)CC)C(N)=O` [compound 18] (H-VFRLKKWIQKAI-NH2), in series [1], the FICi came out at 0.0781, the MICpep amounted to 50 µg/mL and the MSCpep amounted to 3.125 µg/mL. In series [2], the MSCery came to 12.5 µg/mL and the FICi turned out to be 0.1250. Besides, in series [2] (E. coli BW25113, LB), the “MIC of the peptide (MICpep)” value came out at 50 µg/mL and the “MSCpeptide, minimum synergistic concentration” value came to 3.125 µg/mL. The Hemolysis in series [3] is 2.3% and 2%.
As for `CC[C@H]1OC(=O)[C@H](C)[C@@H](O[C@H]2C[C@@](C)(OC)[C@@H](O)[C@H](C)O2)[C@H](C)[C@@H](O[C@@H]2O[C@H](C)C[C@H](N(C)C)[C@H]2O)[C@](C)(O)C[C@@H](C)C(=O)[C@H](C)[C@@H](O)[C@]1(C)O` [erythromycin, reference compound], the MIC in series [2] (Escherichia coli, antibiotic without synergist, E. coli BW25113, LB, read-out: MIC of erythromycin (MICery)) was 100 to 200 µg/mL. Further, in series [2] (antibiotic without synergist, E. coli BW25113, LB), the “MIC of erythromycin (MICery)” value was > 100 µg/mL and 200 µg/mL.
As to `CO[C@@H]1[C@@H](OC(N)=O)[C@@H](O)[C@H](Oc2ccc3c(O)c(NC(=O)c4ccc(O)c(CC=C(C)C)c4)c(=O)oc3c2C)OC1(C)C` [novobiocin, reference compound], the MIC in series [4] (Escherichia coli, read-out: MIC of novobiocin (MICnovo)) is > 200 µg/mL. The “MIC of novobiocin (MICnovo)” value in series [4] was > 200 µg/mL.
Turning to `CC[C@H](C)[C@H](NC(=O)[C@H](Cc1c[nH]c2ccccc12)NC(=O)[C@H](CCCCN)NC(=O)[C@H](CCCCN)NC(=O)[C@H](CC(C)C)NC(=O)[C@H](CCCNC(=N)N)NC(=O)[C@H](Cc1ccccc1)NC(=O)[C@@H](NC(=O)[C@@H](N)Cc1c[nH]cn1)C(C)C)C(=O)N[C@@H](CCC(N)=O)C(=O)N[C@@H](CCCCN)C(=O)N[C@H](C(=O)N[C@H](C(=O)N[C@@H](CC(=O)O)C(=O)N[C@@H](CCC(N)=O)C(=O)N[C@@H](Cc1ccccc1)C(=O)NCC(=O)N[C@@H](CCC(=O)O)C(=O)O)[C@@H](C)CC)C(C)C` [peptide 2] (H-HVFRLKKWIQKVIDQFGE-OH), in series [1], the MSCrif was determined as 0.5 µg/mL, the MICpep is 200 µg/mL and the MSCpep is 50 µg/mL. Also, in series [2], the MSCery was found to be 25 µg/mL and the FICi amounted to 0.3750. In series [2] (E. coli BW25113, LB), the “MIC of the peptide (MICpep)” value amounted to 200 µg/mL and the “MSCpeptide, minimum synergistic concentration” value was 50 µg/mL.
